According to patent publication US20250114460A1, “NOVEL PLK1 DEGRADATION INDUCING COMPOUND” (UPPTHERA, INC., priority 2021, published 2025):

How the values were obtained:
Assay type in all cases: cell-based
PLK1 = biological target: T1, PLK1 (Homo sapiens, UniProt P53350); assay: Luciferase assay for PLK1 in HeLa LgBit (Plk1-HiBit KI) cell line; conditions: 300 nM compound, luminescence after 9 hours
T1 construct: endogenous in cells; host or cells: HeLa LgBit (Plk1-HiBit KI): HeLa stably expressing LgBit, with a CRISPR/Cas9 knock-in of HiBit at the endogenous PLK1 locus
Method in brief: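 HeLa cells stably expressing LgBit, with HiBit knocked in at the C-terminus of endogenous Plk1, released from a 24 h 2 mM thymidine block and grown 18 h. Endurazine added, then compound at 300 nM; luminescence tracked in real time, expressed as ratio to DMSO.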

NCI-H526 cell line = assay: Cell viability assay for H526 cell (EZ-Cytox); conditions: Homo sapiens, NCI-H526, 120 h; H526 cells, 5 days, 3000 nM to 0.46 nM
Method in brief: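 NCI-H526 cells were exposed to compound in CO2 incubator culture for 5 days. Viability was read by EZ-Cytox absorbance at 450 nm after 3 min shaking, giving IC50 values.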

MRC-5 cell line = assay: Cell viability assay for MRC-5 cell line (EZ-Cytox); conditions: Homo sapiens, MRC5, 120 h; MRC-5 normal cell line, 5 days, 10000 nM to 1.52 nM; N.D. = no cytotoxicity until 10 μM; read-out: Activity: IC50 value of Exemplary Compound to MRC-5 cell line
Method: 4. Cell Viability Assay for MRC-5 Cell Line
(1) Culture of MRC-5 Cell Line
Passage of cultured cells was maintained within P15.
(2) Treatment of Compounds of the Present Invention
Then, it was cultured in 37° C.
(3) Cytotoxicity Experiment
CO2 incubator for 4 hours.

T1 sequence (P53350 whole entry): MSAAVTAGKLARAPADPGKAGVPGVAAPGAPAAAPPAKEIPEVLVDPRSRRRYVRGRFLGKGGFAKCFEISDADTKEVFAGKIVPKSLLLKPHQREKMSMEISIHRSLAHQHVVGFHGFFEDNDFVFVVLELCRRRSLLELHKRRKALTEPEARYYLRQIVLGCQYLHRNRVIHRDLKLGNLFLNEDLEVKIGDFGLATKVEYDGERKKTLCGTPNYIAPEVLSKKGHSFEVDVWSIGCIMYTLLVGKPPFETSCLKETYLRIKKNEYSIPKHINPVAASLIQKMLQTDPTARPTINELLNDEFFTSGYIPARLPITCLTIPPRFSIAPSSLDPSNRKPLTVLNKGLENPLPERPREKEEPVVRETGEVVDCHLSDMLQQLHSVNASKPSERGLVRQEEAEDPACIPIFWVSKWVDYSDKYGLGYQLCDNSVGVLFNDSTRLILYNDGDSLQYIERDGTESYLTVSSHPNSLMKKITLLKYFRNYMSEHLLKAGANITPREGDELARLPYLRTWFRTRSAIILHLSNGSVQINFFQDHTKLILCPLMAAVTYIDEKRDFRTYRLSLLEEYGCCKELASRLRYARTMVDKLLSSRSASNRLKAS

Row | Compound | Activity: ratio of the luminescense value of each Exemplary Compound treatment group to DMSO treatment group (PLK1) | IC50 (NCI-H526 cell line) [µM] | IC50 (MRC-5 cell line) [µM]
1 | COc1cc(C(=O)NN2CCC(CCN3CCN(c4ccc5c(c4)C(=O)N(C4CCC(=O)NC4=O)C5=O)CC3)C2)ccc1Nc1ncc2c(n1)N(C1CCCC1)CC(F)(F)C(=O)N2C (stereo not drawn) [Compound 149, 4-((9-cyclopentyl-7,7-difluoro-5-methyl-6-oxo-6,7,8,9-tetrahydro-5H-pyrimido[4,5-b][1,4]diazepin-2-yl)amino)-N-(3-(2-(4-(2-(2,6-dioxopiperidin-3-yl)-1,3-dioxoisoindolin-5-yl)piperazin-1-yl)ethyl)pyrrolidin-1-yl)-3-methoxybenzamide] | ++ (++<0.6) | < 0.05 | > 10
2 | COc1cc(C(=O)N[C@H]2CC[C@H](N3CCN(c4ccc5c(c4)C(=O)N(C4CCC(=O)NC4=O)C5=O)CC3)CC2)ccc1Nc1ncc2c(n1)N(C(C)C)CC(F)(F)C(=O)N2C (stereo partly drawn) [Compound 150, 4-((7,7-difluoro-9-isopropyl-5-methyl-6-oxo-6,7,8,9-tetrahydro-5H-pyrimido[4,5-b][1,4]diazepin-2-yl)amino)-N-((1r,4r)-4-(4-(2-(2,6-dioxopiperidin-3-yl)-1,3-dioxoisoindolin-5-yl)piperazin-1-yl)cyclohexyl)-3-methoxybenzamide] | ++ (++<0.6) | < 0.05 | 19.3
3 | COc1cc(C(=O)NN2CCC(CCN3CCN(c4cccc5c4C(=O)N(C4CCC(=O)NC4=O)C5=O)CC3)C2)ccc1Nc1ncc2c(n1)N(C1CCCC1)CC(F)(F)C(=O)N2C (stereo not drawn) [Compound 151, 4-((9-cyclopentyl-7,7-difluoro-5-methyl-6-oxo-6,7,8,9-tetrahydro-5H-pyrimido[4,5-b][1,4]diazepin-2-yl)amino)-N-(3-(2-(4-(2-(2,6-dioxopiperidin-3-yl)-1,3-dioxoisoindolin-4-yl)piperazin-1-yl)ethyl)pyrrolidin-1-yl)-3-methoxybenzamide] | ++ (++<0.6) | < 0.05 | > 10
4 | COc1cc(C(=O)N[C@H]2CC[C@H](N(C)CC3CCN(c4cccc5c4C(=O)N(C4CCC(=O)NC4=O)C5=O)CC3)CC2)ccc1Nc1ncc2c(n1)N(C(C)C)CC(F)(F)C(=O)N2C (stereo partly drawn) [Compound 152, 4-((7,7-difluoro-9-isopropyl-5-methyl-6-oxo-6,7,8,9-tetrahydro-5H-pyrimido[4,5-b][1,4]diazepin-2-yl)amino)-N-((1r,4r)-4-(((1-(2-(2,6-dioxopiperidin-3-yl)-1,3-dioxoisoindolin-4-yl)piperidin-4-yl)methyl)(methyl)amino)cyclohexyl)-3-methoxybenzamide] | ++ (++<0.6) | < 0.05 | 6.17
5 | COc1cc(C(=O)N[C@H]2CC[C@H](N(C)CC3CCN(c4ccc5c(c4)C(=O)N(C4CCC(=O)NC4=O)C5=O)CC3)CC2)ccc1Nc1ncc2c(n1)N(C(C)C)CC(F)(F)C(=O)N2C (stereo partly drawn) [Compound 153, 4-((7,7-difluoro-9-isopropyl-5-methyl-6-oxo-6,7,8,9-tetrahydro-5H-pyrimido[4,5-b][1,4]diazepin-2-yl)amino)-N-((1r,4r)-4-(((1-(2-(2,6-dioxopiperidin-3-yl)-1,3-dioxoisoindolin-5-yl)piperidin-4-yl)methyl)(methyl)amino)cyclohexyl)-3-methoxybenzamide] | ++ (++<0.6) | < 0.05 | 15.8
6 | COc1cc(C(=O)NN2CCC(N3CCN(c4ccc5c(c4)C(=O)N(C4CCC(=O)NC4=O)C5=O)CC3)C2)ccc1Nc1ncc2c(n1)N(C(C)C)CC(F)(F)C(=O)N2C (stereo not drawn) [Compound 154, 4-((7,7-difluoro-9-isopropyl-5-methyl-6-oxo-6,7,8,9-tetrahydro-5H-pyrimido[4,5-b][1,4]diazepin-2-yl)amino)-N-(3-(4-(2-(2,6-dioxopiperidin-3-yl)-1,3-dioxoisoindolin-5-yl)piperazin-1-yl)pyrrolidin-1-yl)-3-methoxybenzamide] | ++ (++<0.6) | < 0.1 | > 10
7 | COc1cc(C(=O)NN2CCC(N3CCN(c4cccc5c4C(=O)N(C4CCC(=O)NC4=O)C5=O)CC3)C2)ccc1Nc1ncc2c(n1)N(C(C)C)CC(F)(F)C(=O)N2C (stereo not drawn) [Compound 155, 4-((7,7-difluoro-9-isopropyl-5-methyl-6-oxo-6,7,8,9-tetrahydro-5H-pyrimido[4,5-b][1,4]diazepin-2-yl)amino)-N-(3-(4-(2-(2,6-dioxopiperidin-3-yl)-1,3-dioxoisoindolin-4-yl)piperazin-1-yl)pyrrolidin-1-yl)-3-methoxybenzamide] | + (+<0.7) | < 0.1 | > 10
8 | COc1cc(C(=O)N[C@H]2CC[C@H](N(C)CCN3CCN(c4ccc5c(c4)C(=O)N(C4CCC(=O)NC4=O)C5=O)CC3)CC2)ccc1Nc1ncc2c(n1)N(C(C)C)CC(F)(F)C(=O)N2C (stereo partly drawn) [Compound 156, 4-((7,7-difluoro-9-isopropyl-5-methyl-6-oxo-6,7,8,9-tetrahydro-5H-pyrimido[4,5-b][1,4]diazepin-2-yl)amino)-N-((1r,4r)-4-((2-(4-(2-(2,6-dioxopiperidin-3-yl)-1,3-dioxoisoindolin-5-yl)piperazin-1-yl)ethyl)(methyl)amino)cyclohexyl)-3-methoxybenzamide] | ++ (++<0.6) | < 0.05 | > 10
9 | COc1cc(C(=O)NN2CCC(CN3CCN(c4cccc5c4C(=O)N(C4CCC(=O)NC4=O)C5=O)CC3)C(F)(F)C2)ccc1Nc1ncc2c(n1)N(C(C)C)CC(F)(F)C(=O)N2C (stereo not drawn) [Compound 157, 4-((7,7-difluoro-9-isopropyl-5-methyl-6-oxo-6,7,8,9-tetrahydro-5H-pyrimido[4,5-b][1,4]diazepin-2-yl)amino)-N-(4-((4-(2-(2,6-dioxopiperidin-3-yl)-1,3-dioxoisoindolin-4-yl)piperazin-1-yl)methyl)-3,3-difluoropiperidin-1-yl)-3-methoxybenzamide] | ++ (++<0.6) | < 0.1 | > 10
10 | COc1cc(C(=O)NN2CCC(CN3CCN(c4cccc5c4CN(C4CCC(=O)NC4=O)C5=O)CC3)C(F)(F)C2)ccc1Nc1ncc2c(n1)N(C(C)C)CC(F)(F)C(=O)N2C (stereo not drawn) [Compound 158, 4-((7,7-difluoro-9-isopropyl-5-methyl-6-oxo-6,7,8,9-tetrahydro-5H-pyrimido[4,5-b][1,4]diazepin-2-yl)amino)-N-(4-((4-(2-(2,6-dioxopiperidin-3-yl)-1-oxoisoindolin-4-yl)piperazin-1-yl)methyl)-3,3-difluoropiperidin-1-yl)-3-methoxybenzamide] | +++ (+++: <0.3) | < 0.05 | 39.3
11 | COc1cc(C(=O)NN2CC(N3CCN(c4ccc5c(c4)C(=O)N(C4CCC(=O)NC4=O)C5=O)CC3)C2)ccc1Nc1ncc2c(n1)N(C(C)C)CC(F)(F)C(=O)N2C (stereo not drawn) [Compound 159, 4-((7,7-difluoro-9-isopropyl-5-methyl-6-oxo-6,7,8,9-tetrahydro-5H-pyrimido[4,5-b][1,4]diazepin-2-yl)amino)-N-(3-(4-(2-(2,6-dioxopiperidin-3-yl)-1,3-dioxoisoindolin-5-yl)piperazin-1-yl)azetidin-1-yl)-3-methoxybenzamide] | ++ (++<0.6) | < 0.03 | 4.91
12 | COc1cc(C(=O)NN2CC(CN3CCN(c4cccc5c4C(=O)N(C4CCC(=O)NC4=O)C5=O)CC3)C2)ccc1Nc1ncc2c(n1)N(C(C)C)CC(F)(F)C(=O)N2C (stereo not drawn) [Compound 161, 4-((7,7-difluoro-9-isopropyl-5-methyl-6-oxo-6,7,8,9-tetrahydro-5H-pyrimido[4,5-b][1,4]diazepin-2-yl)amino)-N-(3-((4-(2-(2,6-dioxopiperidin-3-yl)-1,3-dioxoisoindolin-4-yl)piperazin-1-yl)methyl)azetidin-1-yl)-3-methoxybenzamide] | ++ (++<0.6) | < 0.03 | > 10
13 | COc1cc(C(=O)NC2CCN(CC3CN(c4cc5c(cc4F)C(=O)N(C4CCC(=O)NC4=O)C5=O)C3)CC2)ccc1Nc1ncc2c(n1)N(C(C)C)CC(F)(F)C(=O)N2C (stereo not drawn) [Compound 162, 4-((7,7-difluoro-9-isopropyl-5-methyl-6-oxo-6,7,8,9-tetrahydro-5H-pyrimido[4,5-b][1,4]diazepin-2-yl)amino)-N-(1-((1-(2-(2,6-dioxopiperidin-3-yl)-6-fluoro-1,3-dioxoisoindolin-5-yl)azetidin-3-yl)methyl)piperidin-4-yl)-3-methoxybenzamide] | ++ (++<0.6) | < 0.1 | > 10
